Measurements published in patent US20130203718A1 (priority 2010, published 2013).
“Also recorded” adds a separate entry of the source.

Experiments:
[1] = target: T1, hPRB (Homo sapiens, UniProt P06401); assay: PR transactivation assay (GRE2-Luc) in HEK293T cells transiently expressing hPRB; format: cell-based; set-up: expressed in transfected cells; host or cells: HEK 293T
T1 sequence (P06401 1-933): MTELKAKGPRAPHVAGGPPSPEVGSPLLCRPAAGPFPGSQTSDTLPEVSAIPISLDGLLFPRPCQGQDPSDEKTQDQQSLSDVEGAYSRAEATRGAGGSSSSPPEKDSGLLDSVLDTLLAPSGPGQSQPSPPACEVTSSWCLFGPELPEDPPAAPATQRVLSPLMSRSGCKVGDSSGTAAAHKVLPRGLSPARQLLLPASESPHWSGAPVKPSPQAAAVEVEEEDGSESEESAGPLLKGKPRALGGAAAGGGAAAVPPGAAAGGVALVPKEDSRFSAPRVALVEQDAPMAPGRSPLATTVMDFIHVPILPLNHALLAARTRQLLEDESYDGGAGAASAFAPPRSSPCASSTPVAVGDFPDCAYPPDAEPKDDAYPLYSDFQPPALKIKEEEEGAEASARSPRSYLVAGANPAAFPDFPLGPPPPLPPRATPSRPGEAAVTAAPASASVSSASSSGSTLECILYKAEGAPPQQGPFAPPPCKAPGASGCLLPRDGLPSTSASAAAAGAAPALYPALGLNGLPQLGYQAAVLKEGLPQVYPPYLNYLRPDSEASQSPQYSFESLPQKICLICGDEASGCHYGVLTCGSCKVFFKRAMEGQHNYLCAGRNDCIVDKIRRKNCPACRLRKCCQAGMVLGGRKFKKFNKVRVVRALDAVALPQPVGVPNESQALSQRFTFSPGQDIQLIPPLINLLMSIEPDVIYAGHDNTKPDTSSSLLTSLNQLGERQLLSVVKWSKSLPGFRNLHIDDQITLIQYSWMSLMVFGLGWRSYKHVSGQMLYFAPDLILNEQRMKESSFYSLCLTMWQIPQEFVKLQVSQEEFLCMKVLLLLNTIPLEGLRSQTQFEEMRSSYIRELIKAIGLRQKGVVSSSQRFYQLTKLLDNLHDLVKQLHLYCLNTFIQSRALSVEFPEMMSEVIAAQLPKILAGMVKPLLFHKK
Description: PR Transactivation Assays in HEK 293T.
HEK 293T cells were routinely cultured in a high-glucose DMEM medium (Invitrogene, Cergy Pontoise, France), 20 mM HEPES, 2 mM glutamine, 1× non essential amino acids, 100 U/mL penicillin and 100 μg/mL streptomycin supplemented with 10% foetal calf serum (FCS) in a humidified atmosphere at 37° C. and with 5% CO2. One day before transfection, the cells were seeded at 3×10^6 cells/[…] diameter culture Petri dish and cultured overnight in the same medium. Six hours before transfection, the FCS supplemented medium was replaced by the same medium supplemented with 10% dextran-charcoal treated FCS. Transfections were carried out using the calcium phosphate precipitation method. The calcium phosphate precipitate was prepared with 0.5 μg pchPRB (Petit-Topin, et al Mol Pharmacol, 2009, 75, 1317), 7 μg reporter vector (GRE2-Luc from A. Biola-Vidamment and M. Pallardy) and 1 μg of pcβgal for an internal transfection control, in 1 mL 140 mM NaCl, 0.75 mM Na2HPO4, 25 mM HEPES, 125 mM CaCl2 pH 7.05 and added to the cells 30 minutes later. After 16 h incubation, the transfected cells were washed with PBS containing 2.5 mM EDTA, trypsinized and pooled. The transfected cells were replated in 24-well plates (100.000 transfected cells/well). […] Cells were lysed in 300 μl PBS 1×, 25 mM glycylglycine, 4 mM EDTA, 15% glycerol, 1% triton X-100, 15 mM MgSO4, pH 7.8 supplemented with 2 mM β-mercaptoethanol. The luciferase activities were quantified by using a Mithras LB940 reader microplates (Berthold).
The APRn “agonist efficacy” was determined from the following formula:
Agonist efficacy=[luciferase activity]1/[luciferase activity]2×100
The APRn “antagonist efficacy” was calculated from the following formula:
Antagonist efficacy=100−[luciferase activity]1/[luciferase activity]2×100
The results are the mean±SEM of three to five independent experiments.
All the synthesized APRn were classified in 4 series depending on the nature of their C3 substituent (R1/R′1 groups). The first one (series 1) includes APRn with no C3 substituent (R1═R′1═H) whereas series 2, 3 and 4 are related to APRn bearing a methoxyl (R1═OMe), a hydroxyl (R1═OH) and a fluorine atom (R1═F), respectively. The agonist/antagonist activities of APRn were determined either in human HEK293T cells transiently expressing hPRB or in human MDA-MB-231 iPRAB cells conditionally expressing hPRB, by using a luciferase reporter gene placed under the control of a glucocorticoid response element (GRE2-Luc). The APRn “agonist efficacy” was determined from the luciferase activity measured in the presence of APRn (1 μM). […] The “agonist efficacy” and “antagonist efficacy” are expressed as defined in the biological protocols section.

[2] = series 2-4, stated for both HEK293T and MDA-MB-231 iPRAB cells, APRn 1 μM, FIGS. 3-8
[3] = series 1 (no C3 substituent), HEK293T, APRn 1 μM, FIG. 1

SMILES	melting point	hPRB agonist/antagonist character (in words) [1, 2]	hPRB agonist/antagonist character (in words) [1, 3]	also measured
CC1CCC2C3CCC4=CC(=O)CC[C@]4(C)C3CC[C@]2(C)[C@H]1F (stereo partly drawn)	170 to 171 °C			
CO[C@H]1CC[C@@]2(C)C(=CC[C@H]3[C@@H]4CC[C@H](C(C)O)[C@@]4(C)CC[C@@H]32)C1 (mixture of isomers) [APR-27, 3β-Methoxypregn-5-en-20-ol]	124 to 125 °C	antagonist character without any agonist activity		
CO[C@H]1CC[C@@]2(C)[C@@H](CC[C@@H]3[C@@H]2CC[C@]2(C)[C@@H](C(C)O)CC[C@@H]32)C1 (mixture of isomers) [APR-28, 3β-Methoxy-5α-pregnan-20-ol]		antagonist character without any agonist activity		
CC(O)[C@H]1CC[C@H]2[C@@H]3CC[C@H]4C[C@@H](O)CC[C@]4(C)[C@H]3CC[C@]12C (mixture of isomers) [APR-29, 5α-Pregnan-3β,20-diol]		able to activate hPRB, but their agonist efficacies are low		
CC1CCC2C3CCC4=CC(O)CC[C@]4(C)C3CC[C@]2(C)[C@H]1F (single isomer, unassigned) [APR-07, 17aβ-Fluoro-17α-methyl-D-homo-pregn-4-en-3-ol]	125 to 126 °C	most potent hPRB antagonist in this series		
CC(=O)[C@H]1CC[C@H]2[C@@H]3CC[C@H]4CCCC[C@]4(C)[C@H]3CC[C@]12C [APR-01, 5α-pregnan-20-one]			partial hPRB agonist	antagonist efficacy ([1]; HEK293T, APRn 1 μM plus progesterone 1 nM, FIG. 1): 48%; efficacy to activate hPRB (agonist efficacy) ([1]; HEK293T, APRn 1 μM, relative to 1 nM progesterone, FIG. 1): 30%
CO[C@H]1CC[C@@]2(C)C(=CC[C@H]3[C@@H]4CC[C@H](C(C)=O)[C@@]4(C)CC[C@@H]32)C1 [APR-02, 3β-Methoxypregn-5-en-20-one]		most potent molecules		hPRB agonist/antagonist character (in words) ([1]; series 2-4, stated for both HEK293T and MDA-MB-231 iPRAB cells, APRn 1 μM, FIGS. 3-8, listed as APR2): antagonist character without any agonist activity
CC1CCC2C3CC=C4CC5(CC[C@]4(C)C3CC[C@]2(C)[C@H]1F)OCCO5 (stereo partly drawn) [APR-05, 17aβ-Fluoro-17α-methyl-D-homo-3-ethylenedioxo-5-androstene]	146 to 147 °C			
CC1CCC2C3CC=C4C=CCC[C@]4(C)C3CC[C@]2(C)[C@H]1F (stereo partly drawn) [APR-08, 17aβ-Fluoro-17α-methyl-D-homo-pregn-3,5-diene]			partial antagonist	hPRB agonist/antagonist character (in words) ([1]; series 1 (no C3 substituent), HEK293T, APRn 1 μM, FIG. 1, listed as APR-8): full antagonists
C[C@H](O)[C@H]1CCC2C3CCC4CCCC[C@]4(C)C3CC[C@@]21C (stereo partly drawn) [APR-10, 20-Hydroxypregnane]			full antagonists	
C[C@H](O)[C@H]1CCC2C3CC=C4C=CCC[C@]4(C)C3CC[C@@]21C (stereo partly drawn) [APR-11, pregn-3,5-dien-20-ol]	103 to 104 °C		full antagonists	
CC(=O)[C@H]1CC[C@H]2[C@@H]3CC=C4C=CCC[C@]4(C)[C@H]3CC[C@]12C [APR-12, Pregn-3,5-dien-20-one]	135 to 136 °C		partial antagonist	
CC(=O)O[C@@H](C)[C@H]1CC[C@H]2[C@@H]3CC[C@H]4CCCC[C@]4(C)[C@H]3CC[C@]12C [APR-13, 20-Acetoxy-5α-pregnane]			full antagonists	
C[C@]12CCCC[C@@H]1CC[C@@H]1[C@@H]2CC[C@]2(C)[C@@H](O)CC[C@@H]12 [APR-14, 5α-Androstan-17β-ol]			full antagonists	
CC(=O)[C@H]1CC[C@H]2[C@@H]3CC=C4C[C@@H](O)CC[C@]4(C)[C@H]3CC[C@]12C [APR-15, 3β-Hydroxypregn-5-en-20-one]		able to activate hPRB, but their agonist efficacies are low		
CC(=O)[C@H]1CC[C@H]2[C@@H]3CC[C@H]4C[C@@H](O)CC[C@]4(C)[C@H]3CC[C@]12C [APR-20, 3β-Hydroxy-5α-pregnan-20-one]		able to activate hPRB, but their agonist efficacies are low		
C#CC(C)(O)[C@H]1CC[C@H]2[C@@H]3CC=C4C[C@@H](F)CC[C@]4(C)[C@H]3CC[C@]12C (stereo partly drawn) [APR-21, 20-Ethynyl-3β-fluoropregn-5-en-20-ol]	213 to 214 °C			
CO[C@H]1CC[C@@]2(C)[C@@H](CC[C@@H]3[C@@H]2CC[C@]2(C)[C@@H](C(C)=O)CC[C@@H]32)C1 [APR-22, 3β-Methoxy-5α-pregnan-20-one]	125 to 126 °C	antagonist character without any agonist activity; also recorded: most potent molecules		
C[C@]12CCCC[C@@H]1CC[C@@H]1[C@@H]2CC[C@]2(C)C(=O)CC[C@@H]12 [APR-23, 5α-Androstan-17-one]	120 to 121 °C		full antagonists	
C[C@H](O)[C@H]1CC[C@H]2[C@@H]3CC=C4C[C@@H](F)CC[C@]4(C)[C@H]3CC[C@]12C [APR-24, 3β-Fluoropregn-5-en-20-ol]		efficient hPRB antagonists		
C#CC(C)(O)[C@H]1CC[C@H]2[C@@H]3CC[C@H]4C[C@@H](F)CC[C@]4(C)[C@H]3CC[C@]12C (stereo partly drawn) [APR-26, 20-Ethynyl-3β-fluoro-5α-pregnan-20-ol]	230 to 231 °C			
C#CC(C)(O)[C@H]1CC[C@H]2[C@@H]3CC[C@H]4C[C@@H](OC)CC[C@]4(C)[C@H]3CC[C@]12C (stereo partly drawn) [APR-30, 20-Ethynyl-3β-methoxy-5α-pregnan-20-ol]	168 to 169 °C			
C[C@]12CC[C@H]3[C@@H](CC=C4C[C@@H](F)CC[C@@]43C)[C@@H]1CC[C@@H]2O [APR-41, 3β-Fluoro-androst-5-en-17β-ol]	165 to 166 °C			
C[C@]12CCC3C(CC=C4C[C@@H](O)CC[C@@H]43)C1CC[C@@H]2O (stereo partly drawn) [APR-48, 19-nor-Androst-5-en-3β,17β-diol]		Except for APR48, the molecules of this series behave as antagonists		
C[C@]12CCC3C(CC[C@H]4CCCC[C@H]34)C1CC[C@@H]2O (stereo partly drawn) [APR-52, 19-nor-5-Androstan-17β-ol]			full antagonists	
C#C[C@]1(O)CCC2C3CC[C@H]4CCCC[C@@H]4C3CC[C@@]21C (stereo partly drawn) [APR-56, 17α-Ethynyl-19-nor-5-androstan-17β-ol]			full antagonists	
